What was measured:
TNF-alpha (Homo sapiens) [1] = assay: Compound was tested for the inhibition of LPS-induced TNF-alpha production in human peripheral blood mononuclear cells (PBMC) at 30 uM
TNF-alpha (Homo sapiens) [2] = assay: Compound was tested for the inhibition of LPS-induced TNF-alpha production in human peripheral blood mononuclear cells (PBMC)

Compound	inhibition at 30 µM (TNF-alpha (Homo sapiens) [1]) [%]	IC50 (TNF-alpha (Homo sapiens) [2]) [µM]
O=C1NC(=S)c2ccccc21	34	> 30
O=C(O)CCC(C(=O)O)N1C(=O)c2ccccc2C1=S (stereo not drawn)	20	> 30
O=C1c2ccccc2C(=S)N1C1CCC(=S)NC1=S (stereo not drawn)	79	6
O=C1CCC(N2C(=O)c3ccccc3C2=S)C(=O)N1 (stereo not drawn)	23	> 30
S=C1CCCC(=S)N1	75	8
O=C1NC(=S)CCC1N1C(=O)c2ccccc2C1=S (stereo not drawn)	61	11
COC(=O)CCC(C(=O)OC)N1C(=O)c2ccccc2C1=S (stereo not drawn)	56	20
O=C1c2ccccc2C(=S)N1C1C=CCCC1 (stereo not drawn)	85	16
O=C1NC(=S)CCC1N1C(=O)c2ccccc2C1=O (stereo not drawn)	31	> 30
O=C1CCCC(=S)N1	15	> 30
S=C1NC(=S)c2ccccc21	95	3
O=C1c2ccccc2C(=O)N1C1CCC(=S)NC1=S (stereo not drawn)	52	20
S=C1c2ccccc2C(=S)N1C1C=CCCC1 (stereo not drawn)	86	15
COC(=O)CCC(C(=O)OC)N1C(=S)c2ccccc2C1=S (stereo not drawn)	85	10
